Measured values from patent US20050112573A1, “Method of detecting toxic substance” (priority 2001, published 2005).

Test system: yeast genes (level of expressed mRNA)
Experiment: DNA chip analysis of expressed mRNA of yeast genes after 2 h culture with a toxic chemical substance
Format: cell-based, Saccharomyces cerevisiae S288C
Conditions: for The level of expressed mRNA in the presence of chemical substance/ (ratio to absence of chemical substance): stress protein genes, DNA chip; for The level of expressed mRNA in the presence of chemical substance/ in its absence, gene YPR184W: yeast gene YPR184W
Protocol: Yeast (Saccharomyces cerevtisiae S288C (α SUC2mal mel gap2 CUP1)) were cultured at 25° C. on YPD medium (yeast extract 1%, polypepton 2%, glucose 2%). One of toxic chemical substances was added to the cell at logarithmic growth phase, and the cell was further cultured for two hours. Cell was cultured without any chemical substance in the same condition, and was used as control. Concentrations of the chemical substances were defined to inhibit the growth of the yeast but not lead to death.
After the completion of cultivation, the culture was centrifuged to collect the cells. To the cells, sodium acetate buffer (50 mM sodium acetate, 10 mM EDTA, 1% SDS) was added, and the mixture was shaken at 65° C. for five minutes, followed by returning to room temperature, and obtaining the supernatant, which procedure was repeated two times. To the supernatant, ½ amount of a solution of phenol/chloroform was added, and the mixture was centrifuged to give a supernatant, which was added with an equal amount of chloroform, and the mixture was centrifuged to give a supernatant. To the supernatant, an equal amount of isopropanol containing 0.3 M sodium acetate was added, and the mixture was allowed to stand at room temperature for 30 minutes, after which the mixture was centrifuged to give a sediment of the whole RNAs. Seventy % ethanol was added to the sediment, and the mixture was again centrifuged to give a sediment, which was then dried and dissolved in water. mRNA was isolated from the whole RNAs as followings. In view of the fact that a poly A chain is attached to the 3′ terminus of mRNA, a polynucleotide having a poly T structure which was immobilized on the surface of latex beads was used to trap the mRNA, and then the mRNA was washed and eluted with spine column (Oligotex-dT30<Super>mRNA Purification Kit, Takara). Reverse transcription of the mRNA was conducted with a reverse transcriptase (Super Script II Reverse Transcriptase; catalogue No. 18064-014, GibcoBRL) using fluorescence-labeled nucleotides to give cDNAs that were introduced with Cy3-dUTP or Cy5-dUTP during the reverse transcription.
The labeled cDNAs were dissolved in TE buffer (10 mM Tris-HCl/1 mM EDTA, pH8.0), and the solution was dropped on the DNA chip containing the whole genes of yeast (DNA Chip Research Inc. Japan) so that the cDNAs were hybridized on the DNA chip at 65° C. for over 12 hours. The fluoresces intensity of the DNA chip was read with a scanner, and the ratio relative to the fluorescence intensity resulting from the absence of chemical substance was estimated as the following, which is shown in Tables 1 to 9: [formula]
In the Tables, “Intensity” indicated in the rightmost column is a value of the level of expressed mRNA of each gene in control cells as divided by the average level of the expressions of the whole genes.

CCCCCCCCCCCCOS(=O)(=O)[O-].[Na+] [(18), sodium lauryl sulfate]
The level of expressed mRNA in the presence of chemical substance/The level of expressed mRNA in the absence of chemical substance (yeast gene YNL006W): 1.3
The level of expressed mRNA in the presence of chemical substance/The level of expressed mRNA in the absence of chemical substance (yeast gene YNL007C): 1.0
The level of expressed mRNA in the presence of chemical substance/ (in its absence), gene YNL025C (yeast gene YNL025C, ratio of DNA chip fluorescence intensity to that without chemical substance): 1.3
The level of expressed mRNA in the presence of chemical substance/ (ratio to absence of chemical substance) (yeast gene YNL064C): 0.7
The level of expressed mRNA in the presence of chemical substance/ (ratio to absence), gene YNL073W (yeast gene YNL073W, mitochondria-located protein genes, 2 h culture with chemical): 1.0
The level of expressed mRNA in the presence of chemical substance/The level of expressed mRNA in the absence of chemical substance (yeast gene YNL093W): 3.1
The level of expressed mRNA in the presence of chemical substance/ (in its absence), gene YNL192W (yeast gene YNL192W, ratio of DNA chip fluorescence intensity to that without chemical substance): 2.8
The level of expressed mRNA in the presence of chemical substance/The level of expressed mRNA in the absence of chemical substance (yeast gene YNL333W): 1.1
The level of expressed mRNA in the presence of chemical substance/The level of expressed mRNA in the absence of chemical substance (yeast gene YNR010W): 2.3
The level of expressed mRNA in the presence of chemical substance/The level of expressed mRNA in the absence of chemical substance (yeast gene YNR069C): 0.9
The level of expressed mRNA in the presence of chemical substance/ (in its absence), gene YNR072W (yeast gene YNR072W, ratio of DNA chip fluorescence intensity to that without chemical substance): 1.0
The level of expressed mRNA in the presence of chemical substance/ (ratio to absence of chemical substance) (yeast gene YNR076W): 0.8
The level of expressed mRNA in the presence of chemical substance/The level of expressed mRNA in the absence of chemical substance (yeast gene YOL013C): 1.4
The level of expressed mRNA in the presence of chemical substance/ (ratio to absence), gene YOL096C (yeast gene YOL096C, mitochondria-located protein genes, 2 h culture with chemical): 1.2
The level of expressed mRNA in the presence of chemical substance/ (in its absence), gene YOL096C (yeast gene YOL096C, ratio of DNA chip fluorescence intensity to that without chemical substance): 1.2
The level of expressed mRNA in the presence of chemical substance/ (in its absence), gene YOL108C (yeast gene YOL108C, ratio of DNA chip fluorescence intensity to that without chemical substance): 2.7
The level of expressed mRNA in the presence of chemical substance/ (in its absence), gene YOL116W (yeast gene YOL116W, ratio of DNA chip fluorescence intensity to that without chemical substance): 1.4
The level of expressed mRNA in the presence of chemical substance/ (ratio to absence of chemical substance) (yeast gene YOL161C): 1.0
The level of expressed mRNA in the presence of chemical substance/The level of expressed mRNA in the absence of chemical substance (yeast gene YOL164W): 1.3
The level of expressed mRNA in the presence of chemical substance/ (ratio to absence of chemical substance) (yeast gene YOR008C): 1.3
The level of expressed mRNA in the presence of chemical substance/ (ratio to absence of chemical substance) (yeast gene YOR009W): 0.8
The level of expressed mRNA in the presence of chemical substance/ (ratio to absence of chemical substance) (yeast gene YOR010C): 0.6
The level of expressed mRNA in the presence of chemical substance/The level of expressed mRNA in the absence of chemical substance (yeast gene YOR036W): 1.7
The level of expressed mRNA in the presence of chemical substance/ (in its absence), gene YOR103C (yeast gene YOR103C, ratio of DNA chip fluorescence intensity to that without chemical substance): 1.5
The level of expressed mRNA in the presence of chemical substance/The level of expressed mRNA in the absence of chemical substance (yeast gene YOR117W): 0.9
The level of expressed mRNA in the presence of chemical substance/The level of expressed mRNA in the absence of chemical substance (yeast gene YOR124C): 1.0
The level of expressed mRNA in the presence of chemical substance/The level of expressed mRNA in the absence of chemical substance (yeast gene YOR132W): 1.6
The level of expressed mRNA in the presence of chemical substance/The level of expressed mRNA in the absence of chemical substance (yeast gene YOR157C): 1.2
The level of expressed mRNA in the presence of chemical substance/ (in its absence), gene YOR180C (yeast gene YOR180C, ratio of DNA chip fluorescence intensity to that without chemical substance): 2.3
The level of expressed mRNA in the presence of chemical substance/The level of expressed mRNA in the absence of chemical substance (yeast gene YOR181W): 0.6
The level of expressed mRNA in the presence of chemical substance/The level of expressed mRNA in the absence of chemical substance (yeast gene YOR185C): 1.1
The level of expressed mRNA in the presence of chemical substance/The level of expressed mRNA in the absence of chemical substance (yeast gene YOR198C): 1.5
The level of expressed mRNA in the presence of chemical substance/ (in its absence), gene YOR251C (yeast gene YOR251C, ratio of DNA chip fluorescence intensity to that without chemical substance): 1.3
The level of expressed mRNA in the presence of chemical substance/The level of expressed mRNA in the absence of chemical substance (yeast gene YOR259C): 1.5
The level of expressed mRNA in the presence of chemical substance/The level of expressed mRNA in the absence of chemical substance (yeast gene YOR261C): 1.9
The level of expressed mRNA in the presence of chemical substance/The level of expressed mRNA in the absence of chemical substance (yeast gene YOR288C): 1.6
The level of expressed mRNA in the presence of chemical substance/ (ratio to absence), gene YOR316C (yeast gene YOR316C, mitochondria-located protein genes, 2 h culture with chemical): 1.0
The level of expressed mRNA in the presence of chemical substance/ (in its absence), gene YOR348C (yeast gene YOR348C, ratio of DNA chip fluorescence intensity to that without chemical substance): 0.9
The level of expressed mRNA in the presence of chemical substance/The level of expressed mRNA in the absence of chemical substance (yeast gene YOR355W): 0.9
The level of expressed mRNA in the presence of chemical substance/ (in its absence), gene YOR363C (yeast gene YOR363C, ratio of DNA chip fluorescence intensity to that without chemical substance): 1.8
The level of expressed mRNA in the presence of chemical substance/The level of expressed mRNA in the absence of chemical substance (yeast gene YOR383C): 1.1
The level of expressed mRNA in the presence of chemical substance/ (ratio to absence), gene YPL040C (yeast gene YPL040C, mitochondria-located protein genes, 2 h culture with chemical): 1.1
The level of expressed mRNA in the presence of chemical substance/ (ratio to absence of chemical substance) (yeast gene YPL059W): 1.3
The level of expressed mRNA in the presence of chemical substance/The level of expressed mRNA in the absence of chemical substance (yeast gene YPL089C): 1.1
The level of expressed mRNA in the presence of chemical substance/The level of expressed mRNA in the absence of chemical substance (yeast gene YPL109C): 1.2
The level of expressed mRNA in the presence of chemical substance/ (ratio to absence), gene YPL134C (yeast gene YPL134C, mitochondria-located protein genes, 2 h culture with chemical): 1.3
The level of expressed mRNA in the presence of chemical substance/ (ratio to absence of chemical substance) (yeast gene YPL140C): 1.4
The level of expressed mRNA in the presence of chemical substance/ (in its absence), gene YPL148C (yeast gene YPL148C, ratio of DNA chip fluorescence intensity to that without chemical substance): 1.1
The level of expressed mRNA in the presence of chemical substance/The level of expressed mRNA in the absence of chemical substance (yeast gene YPL149W): 2.9
The level of expressed mRNA in the presence of chemical substance/The level of expressed mRNA in the absence of chemical substance (yeast gene YPL154C): 2.0
The level of expressed mRNA in the presence of chemical substance/ (ratio to absence of chemical substance) (yeast gene YPL194W): 0.8
The level of expressed mRNA in the presence of chemical substance/ (ratio to absence of chemical substance) (yeast gene YPR005C): 1.1
The level of expressed mRNA in the presence of chemical substance/The level of expressed mRNA in the absence of chemical substance (yeast gene YPR103W): 1.5
The level of expressed mRNA in the presence of chemical substance/The level of expressed mRNA in the absence of chemical substance (yeast gene YPR108W): 1.3
The level of expressed mRNA in the presence of chemical substance/ (in its absence), gene YPR165W (yeast gene YPR165W, ratio of DNA chip fluorescence intensity to that without chemical substance): 2.7
The level of expressed mRNA in the presence of chemical substance/ in its absence, gene YPR184W (energy system protein genes, 2 h culture with the chemical, ratio to control without chemical): 1.7
The level of expressed mRNA in the presence of chemical substance/ in its absence, gene YPR184W (ratio of DNA chip fluorescence intensity to that without chemical substance): 1.7
